Numbered stars: 1 amine (or outer) side, 2 acyl side, 3 side chain; on linkers, the order of the positions; unused ones are H or OH. Square brackets hold non-standard residues; d marks the D form. Peptide text beside a SMILES is read from it. ξ: configuration not given here. X1 = O=C([C@H]1CCC[C@@H]1N[*:1])[*:2]; X2 = O=C([C@H]1CNC[C@@H]1N[*:1])[*:2]; ξβ3hY = NC(CC(=O)O)Cc1ccc(O)cc1; β3hN = NC(=O)C[C@H](N)CC(=O)O; ξβ3hR = N=C(N)NCCCC(N)CC(=O)O; β3hV = CC(C)[C@H](N)CC(=O)O; ξβ3hQ = NC(=O)CCC(N)CC(=O)O; ξβ3hD = NC(CC(=O)O)CC(=O)O; ξβ3hL = CC(C)CC(N)CC(=O)O; ξβ3hK = NCCCCC(N)CC(=O)O; ξβ3hT = CC(O)C(N)CC(=O)O; ξβ3hV = CC(C)C(N)CC(=O)O; βAla = NCCC(=O)O
Key:
[1] = target: T1, Vasoactive intestinal polypeptide receptor 2 (Homo sapiens, UniProt P41587); assay: Agonist activity at human VIPR2 expressed in CHOK1 cells assessed as intracellular cAMP accumulation after 60 mins by PathHunter assay; format: functional, cell-based
T1 sequence (P41587 whole entry): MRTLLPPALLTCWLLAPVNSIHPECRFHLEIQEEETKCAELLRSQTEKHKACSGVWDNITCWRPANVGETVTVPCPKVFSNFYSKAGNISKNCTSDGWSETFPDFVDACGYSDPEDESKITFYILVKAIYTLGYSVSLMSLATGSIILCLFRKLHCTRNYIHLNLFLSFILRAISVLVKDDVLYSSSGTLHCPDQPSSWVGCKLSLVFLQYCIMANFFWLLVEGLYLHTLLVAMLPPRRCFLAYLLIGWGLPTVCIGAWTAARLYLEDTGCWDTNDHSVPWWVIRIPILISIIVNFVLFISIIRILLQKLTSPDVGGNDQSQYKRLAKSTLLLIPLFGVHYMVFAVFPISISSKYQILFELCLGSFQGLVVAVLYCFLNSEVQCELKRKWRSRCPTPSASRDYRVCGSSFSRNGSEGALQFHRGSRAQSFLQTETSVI

[2] = target: T2, Vasoactive intestinal polypeptide receptor 1 (Homo sapiens, UniProt P32241); assay: Agonist activity at human VIPR1 expressed in CHOK1 cells assessed as intracellular cAMP accumulation after 60 mins by PathHunter assay; format: functional, cell-based
T2 sequence (P32241 whole entry): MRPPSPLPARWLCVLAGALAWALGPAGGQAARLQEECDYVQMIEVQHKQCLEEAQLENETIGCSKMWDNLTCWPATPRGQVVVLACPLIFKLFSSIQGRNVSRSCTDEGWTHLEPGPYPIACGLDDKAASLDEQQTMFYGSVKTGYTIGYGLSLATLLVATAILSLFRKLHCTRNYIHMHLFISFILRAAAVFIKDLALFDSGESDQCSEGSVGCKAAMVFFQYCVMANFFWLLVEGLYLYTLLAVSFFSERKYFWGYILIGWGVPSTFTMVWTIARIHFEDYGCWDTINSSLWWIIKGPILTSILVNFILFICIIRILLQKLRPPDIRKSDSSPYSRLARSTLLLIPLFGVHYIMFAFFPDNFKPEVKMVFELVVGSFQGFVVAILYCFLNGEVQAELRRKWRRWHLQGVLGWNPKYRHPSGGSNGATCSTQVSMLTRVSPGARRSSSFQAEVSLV

Structure (SMILES) | EC50 [1] [nM] | EC50 [2] [nM]
CC(=O)N[C@@H](Cc1cnc[nH]1)C(=O)N[C@H]1CCC[C@@H]1C(=O)N[C@@H](CC(=O)O)C(=O)N[C@@H](C)C(=O)N[C@H]1CCC[C@@H]1C(=O)N[C@@H](Cc1ccccc1)C(=O)N[C@H](C(=O)N[C@@H](CCC(=O)O)C(=O)N[C@H]1CCC[C@@H]1C(=O)NC(CC(=O)N[C@H](C(=O)N[C@@H](CCCCN)C(=O)N[C@@H](CC(C)C)C(=O)N[C@@H](CCCNC(=N)N)C(=O)NC(CCCCN)CC(=O)N[C@@H](CCC(N)=O)C(=O)N[C@@H](CC(C)C)C(=O)N[C@@H](C)C(=O)N[C@@H](C)C(=O)N[C@H]1CNC[C@@H]1C(=O)N[C@@H](CCCCN)C(=O)N[C@@H](Cc1ccc(O)cc1)C(=O)N[C@H]1CCC[C@@H]1C(=O)N[C@@H](CC(N)=O)C(=O)N[C@@H](CC(=O)O)C(=O)N[C@@H](CC(C)C)C(=O)NC(CCCCN)CC(=O)N[C@@H](CCCCN)C(=O)NCC(=O)NCCC(=O)N[C@H](C(=O)O)[C@@H](C)O)[C@@H](C)O)Cc1ccc(O)cc1)[C@@H](C)O (stereo partly drawn) (Ac-H[X1]DA[X1]FTE[X1][ξβ3hY]TKLR[ξβ3hK]QLAA[X2]KY[X1]NDL[ξβ3hK]KG[βAla]T-OH) | > 1000 | 461
CC(=O)N[C@@H](Cc1cnc[nH]1)C(=O)N[C@H]1CCC[C@@H]1C(=O)N[C@@H](CC(=O)O)C(=O)N[C@@H](C)C(=O)NC(CC(=O)N[C@@H](Cc1ccccc1)C(=O)N[C@H](C(=O)N[C@@H](CCC(=O)O)C(=O)N[C@@H](CC(N)=O)C(=O)N[C@@H](Cc1ccc(O)cc1)C(=O)N[C@H](C(=O)N[C@@H](CCCCN)C(=O)N[C@@H](CC(C)C)C(=O)NC(CCCNC(=N)N)CC(=O)N[C@@H](CCCCN)C(=O)N[C@@H](CCC(N)=O)C(=O)N[C@@H](CC(C)C)C(=O)N[C@@H](C)C(=O)N[C@@H](C)C(=O)N[C@H]1CNC[C@@H]1C(=O)N[C@@H](CCCCN)C(=O)N[C@@H](Cc1ccc(O)cc1)C(=O)N[C@H]1CCC[C@@H]1C(=O)N[C@@H](CC(N)=O)C(=O)N[C@@H](CC(=O)O)C(=O)N[C@@H](CC(C)C)C(=O)NC(CCCCN)CC(=O)N[C@@H](CCCCN)C(=O)NCC(=O)NCCC(=O)N[C@H](C(=O)O)[C@@H](C)O)[C@@H](C)O)[C@@H](C)O)C(C)C (stereo partly drawn) (Ac-H[X1]DA[ξβ3hV]FTENYTKL[ξβ3hR]KQLAA[X2]KY[X1]NDL[ξβ3hK]KG[βAla]T-OH) | 1.37 | > 1000
CC(=O)N[C@@H](Cc1cnc[nH]1)C(=O)N[C@H]1CCC[C@@H]1C(=O)N[C@@H](CC(=O)O)C(=O)N[C@@H](C)C(=O)NC(CC(=O)N[C@@H](Cc1ccccc1)C(=O)N[C@H](C(=O)N[C@@H](CCC(=O)O)C(=O)N[C@@H](CC(N)=O)C(=O)N[C@@H](Cc1ccc(O)cc1)C(=O)N[C@H](C(=O)N[C@@H](CCCCN)C(=O)NC(CC(=O)N[C@@H](CCCNC(=N)N)C(=O)N[C@@H](CCCCN)C(=O)N[C@@H](CCC(N)=O)C(=O)N[C@@H](CC(C)C)C(=O)N[C@@H](C)C(=O)N[C@@H](C)C(=O)N[C@H]1CNC[C@@H]1C(=O)N[C@@H](CCCCN)C(=O)N[C@@H](Cc1ccc(O)cc1)C(=O)N[C@H]1CCC[C@@H]1C(=O)N[C@@H](CC(N)=O)C(=O)N[C@@H](CC(=O)O)C(=O)N[C@@H](CC(C)C)C(=O)NC(CCCCN)CC(=O)N[C@@H](CCCCN)C(=O)NCC(=O)NCCC(=O)N[C@H](C(=O)O)[C@@H](C)O)CC(C)C)[C@@H](C)O)[C@@H](C)O)C(C)C (stereo partly drawn) (Ac-H[X1]DA[ξβ3hV]FTENYTK[ξβ3hL]RKQLAA[X2]KY[X1]NDL[ξβ3hK]KG[βAla]T-OH) | 1.33 | 1420
CC(=O)N[C@@H](Cc1cnc[nH]1)C(=O)N[C@H]1CCC[C@@H]1C(=O)N[C@@H](CC(=O)O)C(=O)N[C@@H](C)C(=O)NC(CC(=O)N[C@@H](Cc1ccccc1)C(=O)N[C@H](C(=O)N[C@@H](CCC(=O)O)C(=O)N[C@@H](CC(N)=O)CC(=O)N[C@@H](Cc1ccc(O)cc1)C(=O)N[C@H](C(=O)N[C@@H](CCCCN)C(=O)N[C@@H](CC(C)C)C(=O)N[C@@H](CCCNC(=N)N)C(=O)N[C@@H](CCCCN)C(=O)NC(CCC(N)=O)CC(=O)N[C@@H](CC(C)C)C(=O)N[C@@H](C)C(=O)N[C@@H](C)C(=O)N[C@H]1CNC[C@@H]1C(=O)N[C@@H](CCCCN)C(=O)N[C@@H](Cc1ccc(O)cc1)C(=O)N[C@H]1CCC[C@@H]1C(=O)N[C@@H](CC(N)=O)C(=O)N[C@@H](CC(=O)O)C(=O)N[C@@H](CC(C)C)C(=O)NC(CCCCN)CC(=O)N[C@@H](CCCCN)C(=O)NCC(=O)NCCC(=O)N[C@H](C(=O)O)[C@@H](C)O)[C@@H](C)O)[C@@H](C)O)C(C)C (stereo partly drawn) (Ac-H[X1]DA[ξβ3hV]FTE[β3hN]YTKLRK[ξβ3hQ]LAA[X2]KY[X1]NDL[ξβ3hK]KG[βAla]T-OH) | 3.52 | 1530
CC[C@H](C)[C@H](NC(=O)[C@H](C)NC(=O)[C@H](CC(N)=O)NC(=O)CC(CC(C)C)NC(=O)[C@H](Cc1ccc(O)cc1)NC(=O)[C@H](CCCCN)NC(=O)[C@H](CCCCN)NC(=O)CC(NC(=O)[C@H](C)NC(=O)[C@H](CC(C)C)NC(=O)[C@H](CCC(N)=O)NC(=O)CC(CCCCN)NC(=O)[C@H](CCCNC(=N)N)NC(=O)[C@H](CC(C)C)NC(=O)[C@H](CCCNC(=N)N)NC(=O)CC(NC(=O)[C@H](Cc1ccc(O)cc1)NC(=O)[C@H](CC(N)=O)NC(=O)[C@H](CC(=O)O)NC(=O)CC(NC(=O)[C@H](Cc1ccccc1)NC(=O)[C@@H](NC(=O)[C@H](C)NC(=O)CC(CC(=O)O)NC(=O)[C@H](CO)NC(=O)[C@@H](N)Cc1cnc[nH]1)C(C)C)C(C)O)C(C)O)C(C)C)C(=O)NC(CC(=O)N[C@@H](CC(N)=O)C(=O)O)CC(C)C (stereo partly drawn) (H-HS[ξβ3hD]AVF[ξβ3hT]DNY[ξβ3hT]RLR[ξβ3hK]QLA[ξβ3hV]KKY[ξβ3hL]NAI[ξβ3hL]N-OH) | > 1000 | > 1000

Compounds with a lower EC50 [1], results first:

EC50 [1] [nM] | EC50 [2] [nM] | Structure (SMILES)
0.859 | 1420 | CC(=O)N[C@@H](Cc1cnc[nH]1)C(=O)N[C@H]1CCC[C@@H]1C(=O)N[C@@H](CC(=O)O)C(=O)N[C@@H](C)C(=O)N[C@H](CC(=O)N[C@@H](Cc1ccccc1)C(=O)N[C@H](C(=O)N[C@@H](CCC(=O)O)C(=O)N[C@@H](CC(N)=O)CC(=O)N[C@@H](Cc1ccc(O)cc1)C(=O)N[C@H](C(=O)N[C@@H](CCCCN)C(=O)N[C@@H](CC(C)C)C(=O)N[C@@H](CCCNC(=N)N)C(=O)N[C@@H](CCCCN)C(=O)N[C@@H](CCC(N)=O)C(=O)N[C@@H](CC(C)C)C(=O)N[C@@H](C)C(=O)N[C@@H](C)C(=O)N[C@H]1CNC[C@@H]1C(=O)N[C@@H](CCCCN)C(=O)N[C@@H](Cc1ccc(O)cc1)C(=O)N[C@H]1CCC[C@@H]1C(=O)N[C@@H](CC(N)=O)C(=O)N[C@@H](CC(=O)O)C(=O)N[C@@H](CC(C)C)C(=O)NC(CCCCN)CC(=O)N[C@@H](CCCCN)C(=O)NCC(=O)NCCC(=O)N[C@H](C(=O)O)[C@@H](C)O)[C@@H](C)O)[C@@H](C)O)C(C)C (stereo partly drawn) (Ac-H[X1]DA[β3hV]FTE[β3hN]YTKLRKQLAA[X2]KY[X1]NDL[ξβ3hK]KG[βAla]T-OH)
1.26 | > 1000 | CC(=O)N[C@@H](Cc1cnc[nH]1)C(=O)N[C@H]1CCC[C@@H]1C(=O)N[C@@H](CC(=O)O)C(=O)N[C@@H](C)C(=O)NC(CC(=O)N[C@@H](Cc1ccccc1)C(=O)N[C@H](C(=O)N[C@@H](CCC(=O)O)C(=O)N[C@@H](CC(N)=O)CC(=O)N[C@@H](Cc1ccc(O)cc1)C(=O)N[C@H](C(=O)N[C@@H](CCCCN)C(=O)N[C@@H](CC(C)C)C(=O)N[C@@H](CCCNC(=N)N)C(=O)N[C@@H](CCCCN)C(=O)N[C@@H](CCC(N)=O)C(=O)NC(CC(=O)N[C@@H](C)C(=O)N[C@@H](C)C(=O)N[C@H]1CNC[C@@H]1C(=O)N[C@@H](CCCCN)C(=O)N[C@@H](Cc1ccc(O)cc1)C(=O)N[C@H]1CCC[C@@H]1C(=O)N[C@@H](CC(N)=O)C(=O)N[C@@H](CC(=O)O)C(=O)N[C@@H](CC(C)C)C(=O)NC(CCCCN)CC(=O)N[C@@H](CCCCN)C(=O)NCC(=O)NCCC(=O)N[C@H](C(=O)O)[C@@H](C)O)CC(C)C)[C@@H](C)O)[C@@H](C)O)C(C)C (stereo partly drawn) (Ac-H[X1]DA[ξβ3hV]FTE[β3hN]YTKLRKQ[ξβ3hL]AA[X2]KY[X1]NDL[ξβ3hK]KG[βAla]T-OH)
1.27 | 293 | CC(=O)N[C@@H](Cc1cnc[nH]1)C(=O)N[C@H]1CCC[C@@H]1C(=O)N[C@@H](CC(=O)O)C(=O)N[C@@H](C)C(=O)NC(CC(=O)N[C@@H](Cc1ccccc1)C(=O)N[C@H](C(=O)N[C@@H](CCC(=O)O)C(=O)N[C@@H](CC(N)=O)CC(=O)N[C@@H](Cc1ccc(O)cc1)C(=O)N[C@H](C(=O)N[C@@H](CCCCN)C(=O)N[C@@H](CC(C)C)C(=O)N[C@@H](CCCNC(=N)N)C(=O)NC(CCCCN)CC(=O)N[C@@H](CCC(N)=O)C(=O)N[C@@H](CC(C)C)C(=O)N[C@@H](C)C(=O)N[C@@H](C)C(=O)N[C@H]1CNC[C@@H]1C(=O)N[C@@H](CCCCN)C(=O)N[C@@H](Cc1ccc(O)cc1)C(=O)N[C@H]1CCC[C@@H]1C(=O)N[C@@H](CC(N)=O)C(=O)N[C@@H](CC(=O)O)C(=O)N[C@@H](CC(C)C)C(=O)NC(CCCCN)CC(=O)N[C@@H](CCCCN)C(=O)NCC(=O)NCCC(=O)N[C@H](C(=O)O)[C@@H](C)O)[C@@H](C)O)[C@@H](C)O)C(C)C (stereo partly drawn) (Ac-H[X1]DA[ξβ3hV]FTE[β3hN]YTKLR[ξβ3hK]QLAA[X2]KY[X1]NDL[ξβ3hK]KG[βAla]T-OH)

— ChEMBL document CHEMBL4257221, “Peptides comprising non-natural amino acids and methods of making and using the same” (2016)
